≈ marks a conversion by molar mass, not a printed value.
Assays:
[1] = system: Mycobacterium tuberculosis; assay: Antimycobacterial activity against isoniazid-resistant Mycobacterium tuberculosis after 14 days by broth microdilution method; format: functional; settings: 336 h
[2] = system: Mycobacterium tuberculosis; assay: Antimycobacterial activity against isoniazid-resistant Mycobacterium tuberculosis after 21 days by broth microdilution method; format: functional; settings: 504 h

SMILES | MIC [1] | MIC [2]
CN[C@@H]1[C@H](O[C@H]2[C@H](O[C@H]3[C@H](O)[C@@H](O)[C@H](N=C(N)N)[C@@H](O)[C@@H]3N=C(N)N)O[C@@H](C)[C@]2(O)C=O)O[C@@H](CO)[C@H](O)[C@H]1O [STREPTOMYCIN] | 2 µM (≈ 1.16 µg/mL) | 2 µM (≈ 1.16 µg/mL)
O=c1c2c3c(sc2ncn1/N=C/c1ccc(Cl)cc1)CN(Cc1ccccc1)CC3 | 20 µM (≈ 8.7 µg/mL) | 20 µM (≈ 8.7 µg/mL)
CC[C@@H](CO)NCCN[C@@H](CC)CO [ETHAMBUTOL] | 4 µM (≈ 0.817 µg/mL) | 4 µM (≈ 0.817 µg/mL)
Cc1nc2sc3c(c2c(=O)n1/N=C/c1ccc(C#N)cc1)CCN(Cc1ccccc1)C3 | 20 µM (≈ 8.79 µg/mL) | 20 µM (≈ 8.79 µg/mL)
CO[C@H]1/C=C/O[C@@]2(C)Oc3c(C)c(O)c4c(O)c(c(/C=N/N5CCN(C)CC5)c(O)c4c3C2=O)NC(=O)/C(C)=C\C=C\[C@H](C)[C@H](O)[C@@H](C)[C@@H](O)[C@@H](C)[C@H](OC(C)=O)[C@@H]1C [RIFAMPIN] | 2 µM (≈ 1.65 µg/mL) | 2 µM (≈ 1.65 µg/mL)
O=c1c2c3c(sc2ncn1/N=C/c1cccs1)CN(Cc1ccccc1)CC3 | 22 µM (≈ 8.94 µg/mL) | 22 µM (≈ 8.94 µg/mL)
Cc1nc2sc3c(c2c(=O)n1/N=C/c1ccc(Cl)cc1)CCN(Cc1ccccc1)C3 | 8 µM (≈ 3.59 µg/mL) | 8 µM (≈ 3.59 µg/mL)
NNC(=O)c1ccncc1 [ISONIAZID] | > 8 µM | > 8 µM
N#Cc1ccc(/C=N/n2cnc3sc4c(c3c2=O)CCN(Cc2ccccc2)C4)cc1 | 9 µM (≈ 3.83 µg/mL) | 9 µM (≈ 3.83 µg/mL)
COc1ccc(/C=N/n2cnc3sc4c(c3c2=O)CCN(Cc2ccccc2)C4)cc1 | 20 µM (≈ 8.61 µg/mL) | 20 µM (≈ 8.61 µg/mL)

— ChEMBL document CHEMBL3751688, “Synthesis, in vitro antimycobacterial evaluation and docking studies of some new 5,6,7,8-tetrahydropyrido[4',3':4,5]thieno[2,3-d]pyrimidin-4(3H)-one schiff bases” (Bioorg Med Chem Lett, 2016)
